Assay results taken from patent publication US7553843B2, “Process for the preparation of purified crystalline CCI-779” (Wyeth, priority 2005, dated 2009).

Assays:
[1] = Storage stability of purified crystalline CCI-779, HPLC strength; type: physicochemical
Text: The good crystallinity of the purified CCI-779 contributes to the improved stability of the purified CCI-779 and longer shelf life, and contains less oxidative impurities. In one embodiment, the purified crystalline CCI-779 of the present invention degrades less than about 3%, less than about 2%, or less than about 1% over a period of about 1 month. Desirably, the purified crystalline CCI-779 retains greater than 97% strength over a period of about 3 months, and more desirably about 6 months at about 5° C. as measured by high performance liquid chromatography (HPLC), among other techniques. The strength is similarly maintained at elevated temperatures up to about 70° C., desirably up to about 51° C., more desirably temperatures up to about 25° C. and greater relative humidities up to about 60%, and most desirably temperatures at about 5° C., or combinations thereof. In one embodiment, the purified crystallized CCI-779 prepared according to the present invention maintains its stability at a temperature of about 25° C. and relative humidity of about 60% for up to about 3 months, and more desirably up to about 6 months.
Following nucleation, the batch was aged for 34 minutes as indicated by the FBRM® instrument to obtain stabilization of the chord count. The pentanediol and heptane were added as described in Example 1. The isolated purified crystalline CCI-779 was washed and dried at 40 EC under vacuum for 48 hours. A yield of 176.3 g of purified crystalline CCI-779 was obtained (87.6%). See Table 1 for the HPLC data for the purified CCI-779 obtained immediately after crystallization and samples tested after 2 weeks and 1 month at varying conditions.
This example was performed using the same protocol as described in Example 2. However, filtration of the crude CCI-779 solution in acetone was completed in 30 minutes by using a medium grit fritted funnel. Following distillation of the acetone, the batch was held as an amorphous foam/oil for 2 hours under reduced pressures. Diethyl ether was then added to the foam/oil and the diethyl ether solution was evaluated for acetone content (8.5 vol %). The diethylether (containing acetone) was then removed by distillation to obtain an amorphous foam. This foam was maintained under reduced pressures for 30 minutes and diethyl ether again added. The diethylether was again monitored for acetone contact and determined to be less than 3.6 vol % acetone. The crystallization was the continued as in Example 2. The induction time for nucleation, i.e., the time required to obtain a chord count for particles of about 1 to about 5 μm particles of greater than about 1500 chords/s was 26 minutes. Following the nucleation, the slurry was stirred for additional time to ensure stabilization of the nucleation. Following isolation and drying as outlined above, a final yield of 175.1 g of purified crystalline CCI-779 was obtained (87.3%). See Table 2, for the HPLC data for the purified crystalline CCI-779 obtained immediately after crystallization and samples tested after 2 weeks and 1 month at varying conditions.

[2] = test system: histologically diverse tumor cells; details: in vitro, cited from earlier work
human tumor xenografts = details: nude mice; cited from earlier work
orthotopic glioma model = details: nude mice; cited from earlier work
[3] = test system: human glioblastoma cell line; details: in vitro; cited from earlier work

Compound: CO[C@H]1C[C@@H]2CC[C@@H](C)[C@@](O)(O2)C(=O)C(=O)N2CCCC[C@H]2C(=O)O[C@H]([C@H](C)C[C@@H]2CC[C@@H](OC(=O)C(C)(CO)CO)[C@H](OC)C2)CC(=O)[C@H](C)/C=C(\C)[C@@H](O)[C@@H](OC)C(=O)[C@H](C)C[C@H](C)/C=C/C=C/C=C/1C [CCI-779, Rapamycin 42-ester with 3-hydroxy-2-(hydroxymethyl)-2-methylpropionic acid]
- HPLC Strength ([1]; Example 2 batch, Initial (immediately after crystallization)): 101.09%
- HPLC Strength ([1]; Example 2 batch, storage 5° C., 1 Month): 97.42%
- HPLC Strength ([1]; Example 2 batch, storage 5° C., 2 Weeks): 101.09%
- HPLC Strength ([1]; Example 2 batch, storage 25° C./60% RH, 1 Month): 97.87%
- HPLC Strength ([1]; Example 2 batch, storage 25° C./60% RH, 2 Weeks): 101.07%
- HPLC Strength ([1]; Example 3 batch, Initial (immediately after crystallization)): 100.45%
- HPLC Strength ([1]; Example 3 batch, storage 5° C., 1 Month): 97.55%
- HPLC Strength ([1]; Example 3 batch, storage 5° C., 2 Weeks): 100.45%
- HPLC Strength ([1]; Example 3 batch, storage 25° C./60% RH, 1 Month): 97.81%
- HPLC Strength ([1]; Example 3 batch, storage 25° C./60% RH, 2 Weeks): 101.30%
- growth of tumor cells ([2]; CNS cancer, T-cell leukemia, breast, prostate, melanoma lines most sensitive): inhibit the growth
- cell cycle effect [2]: arrested cells in the G1 phase
- activity against human tumor xenografts of diverse histological types (human tumor xenografts): has activity
- growth of several human pancreatic tumors and one of two breast cancer lines (human tumor xenografts): inhibited
- activity in orthotopic glioma model (orthotopic glioma model): active
- growth factor (platelet-derived)-induced stimulation of a human glioblastoma cell line [3]: markedly suppressed
